Reference: US8614327B2 (Vertex Pharmaceuticals Incorporated, priority 2004, dated 2013)
pEC50: −log10 of the molar value.

Target: T1, ΔF508-CFTR (Homo sapiens, UniProt P13569, DEL508-508)
T1 construct: expressed in transfected cells
Assay: Membrane potential optical (FRET/VIPR) assay, identification of potentiator compounds
Assay type: cell-based
Settings: Table 3, assay not given; for % Activity: relative efficacy
Method in brief: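 NIH3T3 mouse fibroblasts stably expressing ΔF508-CFTR, temperature-corrected 24 h at 27° C., read on VIPR by FRET between CC2-DMPE and DiSBAC2(3). Potentiators identified in a double-addition format, first adding chloride-free (gluconate) medium with or without compound.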

T1 sequence (P13569 with tags, fused parts or gaps DEL508-508): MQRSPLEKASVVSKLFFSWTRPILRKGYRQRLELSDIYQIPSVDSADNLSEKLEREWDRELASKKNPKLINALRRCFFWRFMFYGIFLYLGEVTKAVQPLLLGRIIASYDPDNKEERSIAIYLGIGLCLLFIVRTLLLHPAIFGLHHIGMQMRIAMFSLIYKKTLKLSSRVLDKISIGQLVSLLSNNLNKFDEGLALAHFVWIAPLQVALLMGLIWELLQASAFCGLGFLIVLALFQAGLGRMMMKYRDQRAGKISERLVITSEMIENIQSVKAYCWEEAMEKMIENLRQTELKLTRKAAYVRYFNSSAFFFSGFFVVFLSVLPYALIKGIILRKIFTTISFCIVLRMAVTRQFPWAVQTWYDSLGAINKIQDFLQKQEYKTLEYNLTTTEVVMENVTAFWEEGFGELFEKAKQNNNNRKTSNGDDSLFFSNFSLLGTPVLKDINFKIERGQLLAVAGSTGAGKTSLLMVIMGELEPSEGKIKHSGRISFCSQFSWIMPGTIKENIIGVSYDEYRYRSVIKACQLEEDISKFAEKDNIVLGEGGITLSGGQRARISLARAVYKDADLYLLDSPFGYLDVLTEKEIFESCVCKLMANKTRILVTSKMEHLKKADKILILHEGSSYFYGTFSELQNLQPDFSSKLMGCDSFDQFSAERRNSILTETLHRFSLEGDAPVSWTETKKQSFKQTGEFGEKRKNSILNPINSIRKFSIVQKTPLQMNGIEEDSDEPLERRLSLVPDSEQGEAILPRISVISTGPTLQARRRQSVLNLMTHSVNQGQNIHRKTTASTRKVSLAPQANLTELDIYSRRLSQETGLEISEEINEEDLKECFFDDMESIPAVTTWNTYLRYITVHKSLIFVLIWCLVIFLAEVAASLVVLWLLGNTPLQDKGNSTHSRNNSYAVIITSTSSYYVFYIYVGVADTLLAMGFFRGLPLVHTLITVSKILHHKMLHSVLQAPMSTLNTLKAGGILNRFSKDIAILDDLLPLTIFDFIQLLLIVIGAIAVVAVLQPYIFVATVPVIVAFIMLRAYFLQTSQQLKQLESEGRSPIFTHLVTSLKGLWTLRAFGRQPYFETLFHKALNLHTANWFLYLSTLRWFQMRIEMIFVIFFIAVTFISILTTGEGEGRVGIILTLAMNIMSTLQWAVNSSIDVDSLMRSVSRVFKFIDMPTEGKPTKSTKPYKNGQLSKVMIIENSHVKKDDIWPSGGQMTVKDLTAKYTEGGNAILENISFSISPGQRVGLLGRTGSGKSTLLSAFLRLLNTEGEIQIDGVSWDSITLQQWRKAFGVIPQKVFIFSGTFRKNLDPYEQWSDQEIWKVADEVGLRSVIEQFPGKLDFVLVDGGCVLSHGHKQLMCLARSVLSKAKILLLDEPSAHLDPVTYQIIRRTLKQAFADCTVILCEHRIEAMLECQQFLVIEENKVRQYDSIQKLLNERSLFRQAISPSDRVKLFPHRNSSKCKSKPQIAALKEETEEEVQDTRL

Structure (SMILES): CCOc1ccccc1-c1cc2cc[nH]c2cc1NC(=O)c1c[nH]c2ccccc2c1=O [Compound 327, N-[5-(2-ethoxyphenyl)-1H-indol-6-yl]-4-oxo-1H-quinoline-3-carboxamide]
- pEC50: > 5.00
- % Activity: ++ (between 25% to 100%)

Structure (SMILES): CC(=O)c1cccc(NC(=O)c2c[nH]c3ccccc3c2=O)c1 [Compound 328, N-(3-acetylphenyl)-4-oxo-1H-quinoline-3-carboxamide]
- pEC50: 4.22 to 4.60
- % Activity: + (<25%)

Structure (SMILES): Cc1ccccc1-c1nc2cc(NC(=O)c3c[nH]c4ccccc4c3=O)ccc2o1 [Compound 329, N-[2-(o-tolyl)benzooxazol-5-yl]-4-oxo-1H-quinoline-3-carboxamide]
- pEC50: 4.60 to 5.00
- % Activity: ++ (between 25% to 100%)

Structure (SMILES): O=C(Nc1ccccc1Cl)c1c[nH]c2ccccc2c1=O [Compound 330, N-(2-chlorophenyl)-4-oxo-1H-quinoline-3-carboxamide]
- pEC50: > 5.00
- % Activity: ++ (between 25% to 100%)

Structure (SMILES): NC(=O)c1ccccc1NC(=O)c1c[nH]c2ccccc2c1=O [Compound 331, N-(2-carbamoylphenyl)-4-oxo-1H-quinoline-3-carboxamide]
- pEC50: 4.22 to 4.60
- % Activity: + (<25%)

Structure (SMILES): C#Cc1ccc(NC(=O)c2c[nH]c3ccccc3c2=O)cc1 [Compound 332, N-(4-ethynylphenyl)-4-oxo-1H-quinoline-3-carboxamide]
- pEC50: > 5.00
- % Activity: ++ (between 25% to 100%)

Structure (SMILES): N#CCc1ccc(-c2ccccc2NC(=O)c2c[nH]c3ccccc3c2=O)cc1 [Compound 333, N-[2-[4-(cyanomethyl)phenyl]phenyl]-4-oxo-1H-quinoline-3-carboxamide]
- % Activity: ++ (between 25% to 100%)

Structure (SMILES): CC(=O)N1CCC2(CCN(C(=O)OC(C)(C)C)CC2)c2ccc(NC(=O)c3c[nH]c4ccccc4c3=O)cc21 [Compound 334, 7′-[(4-oxo-1H-quinolin-3-ylcarbonyl)amino]-spiro[piperidine-4,4′(1′H)-1-acetyl-quinoline], 2′,3′-dihydro-carboxylic acid tert-butyl ester]
- pEC50: 4.60 to 5.00
- % Activity: ++ (between 25% to 100%)

Structure (SMILES): Cc1ccc(C(N)=O)c(NC(=O)c2c[nH]c3ccccc3c2=O)c1 [Compound 335, N-(2-carbamoyl-5-methyl-phenyl)-4-oxo-1H-quinoline-3-carboxamide]
- pEC50: 4.22 to 4.60
- % Activity: + (<25%)

Structure (SMILES): CCCCc1ccccc1NC(=O)c1c[nH]c2ccccc2c1=O [Compound 336, N-(2-butylphenyl)-4-oxo-1H-quinoline-3-carboxamide]
- pEC50: > 5.00
- % Activity: ++ (between 25% to 100%)

Structure (SMILES): CN(C(=O)c1c[nH]c2ccccc2c1=O)c1cc(O)c(C(C)(C)C)cc1C(C)(C)C [Compound 337, N-(5-hydroxy-2,4-ditert-butyl-phenyl)-N-methyl-4-oxo-1H-quinoline-3-carboxamide]
- pEC50: > 5.00
- % Activity: ++ (between 25% to 100%)

Structure (SMILES): Cc1c[nH]c2cccc(NC(=O)c3c[nH]c4ccccc4c3=O)c12 [Compound 338, N-(3-methyl-1H-indol-4-yl)-4-oxo-1H-quinoline-3-carboxamide]
- pEC50: 4.60 to 5.00
- % Activity: ++ (between 25% to 100%)

Structure (SMILES): N#Cc1c[nH]c2cc(NC(=O)c3c[nH]c4ccccc4c3=O)ccc12 [Compound 339, N-(3-cyano-1H-indol-6-yl)-4-oxo-1H-quinoline-3-carboxamide]
- pEC50: > 5.00
- % Activity: ++ (between 25% to 100%)

Structure (SMILES): CCCc1ccc(NC(=O)c2c[nH]c3ccccc3c2=O)cc1NS(C)(=O)=O [Compound 340, N-(3-methylsulfonylamino-4-propyl-phenyl)-4-oxo-1H-quinoline-3-carboxamide]
- pEC50: > 5.00
- % Activity: ++ (between 25% to 100%)

Structure (SMILES): CC(C)(C)COC(=O)NCC(C)(C)c1ccc(NC(=O)c2c[nH]c3ccccc3c2=O)cc1 [Compound 341, [2-methyl-2-[4-[(4-oxo-1H-quinolin-3-yl)carbonylamino]phenyl]-propyl]aminoformic acid neopentyl ester]
- pEC50: > 5.00
- % Activity: ++ (between 25% to 100%)

Structure (SMILES): CC(C)c1ccc(-c2cc3cc[nH]c3cc2NC(=O)c2c[nH]c3ccccc3c2=O)cc1 [Compound 342, N-[5-(4-isopropylphenyl)-1H-indol-6-yl]-4-oxo-1H-quinoline-3-carboxamide]
- pEC50: > 5.00
- % Activity: ++ (between 25% to 100%)

Structure (SMILES): CC(C)CNC(=O)c1cc2cc[nH]c2cc1NC(=O)c1c[nH]c2ccccc2c1=O [Compound 343, N-[5-(Isobutylcarbamoyl)-1H-indol-6-yl]-4-oxo-1H-quinoline-3-carboxamide]
- pEC50: 4.60 to 5.00
- % Activity: ++ (between 25% to 100%)

Structure (SMILES): CCOc1ccccc1-c1ccccc1NC(=O)c1c[nH]c2ccccc2c1=O [Compound 344, N-[2-(2-ethoxyphenyl)phenyl]-4-oxo-1H-quinoline-3-carboxamide]
- % Activity: ++ (between 25% to 100%)

Structure (SMILES): O=C(Nc1ccc2cc[nH]c2c1)c1cnc2ccc(F)cc2c1O [Compound 345, 6-fluoro-4-hydroxy-N-(1H-indol-6-yl)quinoline-3-carboxamide]
- pEC50: > 5.00
- % Activity: ++ (between 25% to 100%)

Structure (SMILES): O=C(Nc1ccccc1)c1c[nH]c2cc(C(F)(F)F)ccc2c1=O [Compound 346, 4-oxo-N-phenyl-7-(trifluoromethyl)-1H-quinoline-3-carboxamide]
- pEC50: > 5.00
- % Activity: ++ (between 25% to 100%)

Structure (SMILES): CN(C)CCNC(=O)c1ccc(-c2cc3cc[nH]c3cc2NC(=O)c2c[nH]c3ccccc3c2=O)cc1 [Compound 347, N-[5-[4-(2-dimethylaminoethylcarbamoyl)phenyl]-1H-indol-6-yl]-4-oxo-1H-quinoline-3-carboxamide]
- pEC50: 4.60 to 5.00
- % Activity: ++ (between 25% to 100%)

Structure (SMILES): CCOc1ccc(-c2ccccc2NC(=O)c2c[nH]c3ccccc3c2=O)cc1 [Compound 348, N-[2-(4-ethoxyphenyl)phenyl]-4-oxo-1H-quinoline-3-carboxamide]
- pEC50: > 5.00
- % Activity: ++ (between 25% to 100%)

Structure (SMILES): O=C(Nc1cccc2ccccc12)c1c[nH]c2ccccc2c1=O [Compound 350, N-(1-naphthyl)-4-oxo-1H-quinoline-3-carboxamide]
- pEC50: > 5.00
- % Activity: ++ (between 25% to 100%)

Structure (SMILES): CCc1cc2cc[nH]c2cc1NC(=O)c1c[nH]c2ccccc2c1=O [Compound 351, N-(5-ethyl-1H-indol-6-yl)-4-oxo-1H-quinoline-3-carboxamide]
- pEC50: > 5.00
- % Activity: ++ (between 25% to 100%)

Structure (SMILES): CC(C)(C)OC(=O)NCCc1c[nH]c2cc(NC(=O)c3c[nH]c4ccccc4c3=O)ccc12 [Compound 352, 2-[6-[(4-oxo-1H-quinolin-3-yl)carbonylamino]-1H-indol-3-yl]ethylaminoformic acid tert-butyl ester]
- pEC50: > 5.00
- % Activity: ++ (between 25% to 100%)

Structure (SMILES): CC(C)(C)OC(=O)Nc1ccc(C(C)(C)C)c(NC(=O)c2c[nH]c3ccccc3c2=O)c1 [Compound 353, [3-[(4-oxo-1H-quinolin-3-yl)carbonylamino]-4-tert-butyl-phenyl]aminoformic acid tert-butyl ester]
- pEC50: > 5.00
- % Activity: ++ (between 25% to 100%)

Structure (SMILES): CN(Cc1ccccc1NC(=O)c1c[nH]c2ccccc2c1=O)C1CCCCC1 [Compound 354, N-[2-[(cyclohexyl-methyl-amino)methyl]phenyl]-4-oxo-1H-quinoline-3-carboxamide]
- pEC50: > 5.00
- % Activity: ++ (between 25% to 100%)

Structure (SMILES): COc1ccccc1-c1ccccc1NC(=O)c1c[nH]c2ccccc2c1=O [Compound 355, N-[2-(2-methoxyphenyl)phenyl]-4-oxo-1H-quinoline-3-carboxamide]
- pEC50: > 5.00
- % Activity: ++ (between 25% to 100%)

Structure (SMILES): CCCc1ccc(NC)cc1NC(=O)c1c[nH]c2ccccc2c1=O [Compound 356, N-(5-methylamino-2-propyl-phenyl)-4-oxo-1H-quinoline-3-carboxamide]
- pEC50: > 5.00
- % Activity: ++ (between 25% to 100%)

Structure (SMILES): CC(C)c1c[nH]c2cc(NC(=O)c3c[nH]c4ccccc4c3=O)ccc12 [Compound 357, N-(3-isopropyl-1H-indol-6-yl)-4-oxo-1H-quinoline-3-carboxamide]
- pEC50: > 5.00
- % Activity: ++ (between 25% to 100%)

Structure (SMILES): O=C(Nc1ccc2cc[nH]c2c1)c1cnc2ccc(Cl)cc2c1O [Compound 358, 6-chloro-4-hydroxy-N-(1H-indol-6-yl)quinoline-3-carboxamide]
- pEC50: > 5.00
- % Activity: ++ (between 25% to 100%)

Structure (SMILES): CN(C)CCS(=O)(=O)Nc1cc(NC(=O)c2c[nH]c3ccccc3c2=O)cc(C(F)(F)F)c1 [Compound 359, N-[3-(2-dimethylaminoethylsulfonylamino)-5-(trifluoromethyl)phenyl]-4-oxo-1H-quinoline-3-carboxamide]
- pEC50: 4.60 to 5.00
- % Activity: ++ (between 25% to 100%)

Structure (SMILES): O=C(Nc1ccc(OC(F)F)cc1)c1c[nH]c2ccccc2c1=O [Compound 360, N-[4-(difluoromethoxy)phenyl]-4-oxo-1H-quinoline-3-carboxamide]
- pEC50: > 5.00
- % Activity: ++ (between 25% to 100%)

Structure (SMILES): COc1ccc(OC)c(-c2ccccc2NC(=O)c2c[nH]c3ccccc3c2=O)c1 [Compound 361, N-[2-(2,5-dimethoxyphenyl)phenyl]-4-oxo-1H-quinoline-3-carboxamide]
- % Activity: +++ (>100%)

Structure (SMILES): CC(C)(C)c1ccc(NC(=O)c2c[nH]c3ccccc3c2=O)c(Cl)c1 [Compound 362, N-(2-chloro-4-tert-butyl-phenyl)-4-oxo-1H-quinoline-3-carboxamide]
- pEC50: > 5.00
- % Activity: ++ (between 25% to 100%)

Structure (SMILES): COc1cccc(-c2ccccc2NC(=O)c2c[nH]c3ccccc3c2=O)c1F [Compound 363, N-[2-(2-fluoro-3-methoxy-phenyl)phenyl]-4-oxo-1H-quinoline-3-carboxamide]
- pEC50: > 5.00
- % Activity: +++ (>100%)

Structure (SMILES): Cc1ccc2cccc(NC(=O)c3c[nH]c4ccccc4c3=O)c2n1 [Compound 364, N-(2-methyl-8-quinolyl)-4-oxo-1H-quinoline-3-carboxamide]
- pEC50: > 5.00
- % Activity: ++ (between 25% to 100%)
